In patent publication US20190111158A1, “INJECTION COMPOSITION FOR LABELING LESION” (NATIONAL CANCER CENTER, priority 2016, published 2019):

Tests used:
[1] = near-infrared fluorescence signal intensity of ICG-MAA complexes at various ICG/MAA mixing ratios; type: physicochemical; conditions: for near-infrared fluorescence signal intensity: MAA 0 mg/mL
[2] = cited from earlier work

near-infrared fluorescence signal intensity ([1]; ICG 1.3 (μN)): 18
near-infrared fluorescence signal intensity ([1]; ICG 3.9 (μN)): 120
near-infrared fluorescence signal intensity ([1]; ICG 6.5 (μN)): 212
near-infrared fluorescence signal intensity ([1]; ICG 9.0 (μN)): 289
near-infrared fluorescence signal intensity ([1]; ICG 12.9 (μN)): 363
near-infrared fluorescence signal intensity ([1]; ICG 25.8 (μN)): 466
near-infrared fluorescence signal intensity ([1]; ICG 38.7 (μN)): 425
near-infrared fluorescence signal intensity ([1]; ICG 51.6 (μN)): 399
near-infrared fluorescence signal intensity ([1]; ICG 64.5 (μN)): 374
near-infrared fluorescence signal intensity ([1]; ICG 77.4 (μN)): 332
near-infrared fluorescence signal intensity ([1]; ICG 103 (μN)): 289
near-infrared fluorescence signal intensity ([1]; ICG 258 (μN)): 139
near-infrared fluorescence signal intensity ([1]; ICG 516 (μN)): 71
near-infrared fluorescence signal intensity ([1]; ICG 774 (μN)): 39
near-infrared fluorescence signal intensity ([1]; ICG 1032 (μN)): 30
ICG concentration with the highest value of near-infrared fluorescence signal intensity ([1]; MAA was not treated): 25.8 µM
SMILES: CC1(C)C(/C=C/C=C/C=C/C=C2\N(CCCCS(=O)(=O)O)c3ccc4ccccc4c3C2(C)C)=[N+](CCCCS(=O)(=O)[O-])c2ccc3ccccc3c21 [ICG, indocyanine green]
clinical safety ([2]; 18 breast cancer patients (T. Kitai, et al., Breast Cancer, 12:211-215, 2005)): safe clinical use
elimination after injection into the human body ([2]; human body): decomposed and disappears or is excreted in the urine or feces within an hour
